This note sets out measurements from US20220235073A1, “ARTEMISININ-DERIVATIVE N-HETEROCYCLIC CARBENE GOLD(I) HYBRID COMPLEXES” (CENTRE NATIONAL DE LA RECHERCHE SCIENTIFIQUE, priority 2019, published 2022).

Experiment [1] relates to MC3T3 mouse osteoblast cells. Description: Cell viability MTT assay, MC3T3. Particulars: for GI50: 72 h, MTT assay; for IC50: Table 3, non tumoral cell model, read-out: IC50 MC3-T3 (osteoblasts); for Selectivity index MC3T3: SI = GI50 (MC3T3)/GI50 (PC-3); for Specificity Bone: MC3-T3 (normal immortalized)/U2OS (tumoral): ratio of IC50, tumoral versus non tumoral cells of same tissue. In kind it is cell-based. The procedure: (§1) PC-3 human prostate cancer cells, and LAMA chronic myeloid leukemia were cultured in RPMI 1640 containing 10% fetal bovine serum and 1% antibiotics (100 U/mL penicillin and 100 μg/mL streotimycin) at 37° C. in 5% CO2 humidified incubators. HL60 chronic myeloid leukemia were cultured in RPMI 1640 containing 15% fetal bovine serum and 1% antibiotics (100 U/mL penicillin and 100 μg/mL streotimycin) at 37° C. in 5% CO2 humidified incubators. HepG-2 human liver cancer cells were cultured in EMEM containing 10% of FBS, 1% of nonessential amino acids, 1 mM of Na-pyruvate, 1% of PenStrep antibiotics and 600 μg/mL of Geneticin. A549 human lung carcinoma cells, T24 human bladder carcinoma cells, MCF-7 human breast adenocarcinoma cells, U-2OS human osteosarcoma and NIH3T3 murine fibroblast cells were cultured in DMEM medium containing 10% fetal bovine serum and 1% antibiotics at 37° C. in 5% CO2 humidified incubators. MC3T3 mouse osteoblast cells were cultured in MEM medium containing 10% fetal bovine serum and 1% antibiotics at 37° C. in 5% CO2 humidified incubators. RWPE-1 human prostate normal cells were cultured in K-SFM medium containing 0.05 mg/ml bovine pituitary extract (BPE) and 5 ng/ml epidermal growth factor (EGF) at 37° C. in 5% CO2 humidified incubators. The MTT reagent (3-(4,5-dimethylthiazol-2-yl)-2,5-diphenyltetrazolium bromide) was used to determine cell death as originally described by Mosmaneland modified by Cuvillier et al.^[6] Briefly, cells were seeded 5,000 to 10,000 cells/well in 24-well plates depending on the cell type and allowed to attach overnight. All of the complexes were dissolved in DMSO. The concentration of the complexes was calculated according to the elemental composition of the complexes determined by the elemental analyses. Media in the presence of the tested complexes were added and serially diluted to various concentrations (from 5 μM to 0.01 μM). Next to these concentrations, for DHA 50, 20 and 10 μM and for the cationic bisNHC gold(I) complex 3 0.001 μM have been used. […] After 72 h of treatment, cells were incubated at 37° C. and 5% CO2 with 25 μL MTT solution (5 mg/mL; Sigma-Aldrich) in 24-well plates for approximately 3 to 4 h. After solubilization with 500 μL of lysis buffer (DMSO), formazan was quantified by spectrophotometry with a microplate reader at 570 nm absorbance. The GI50 values corresponding to the concentration that caused 50% inhibition of cell proliferation were calculated from dose-response curves obtained by nonlinear regression analysis (Prism 8, Graphpad Software). All the results were calculated from data obtained in three independent experiments.

Experiment [2] relates to NF-κB transcription factor induced by TNFalpha. Description: NF-kB transcriptional activity, NF-kB Reporter (Luc)-A549 stable cell line. In kind it is cell-based, human. To be noted: NF-kB Reporter A549 cells, 1 ng/ml TNFα, 7 hours, read-out: IC50, inhibition of NF-κB transcription factor induced by TNFalpha. The procedure:
The NF-kB Reporter (Luc)—A549 Stable Cell Line was used to quantify the inhibitory effects of the indicated doses of the molecules of the invention on transcriptional activity of NF-kB activated by 1 ng/ml TNFα (7 hours of treatment).
Luminescence was read using a luminometer and readings were normalized to wells that only contain media to obtain the Relative Luminescence Units (RLUs).
9. NF-kB Transcriptional Activity

The test system of experiment [3] is Tumor cell models. The experiment is described as follows: MTT assay, panel of tumor cell models. In kind it is cell-based, human. To be noted: mean of PC-3, A549, U2OS, T24, MCF-7, LAMA, HL60. The procedure:
(§2) PC-3 human prostate cancer cells, and LAMA chronic myeloid leukemia were cultured in RPMI 1640 containing 10% fetal bovine serum and 1% antibiotics (100 U/mL penicillin and 100 μg/mL streotimycin) at 37° C. in 5% CO2 humidified incubators. HL60 […] were cultured in RPMI 1640 containing 15% fetal bovine serum and 1% antibiotics (100 U/mL penicillin and 100 μg/mL streotimycin) at 37° C. in 5% CO2 humidified incubators. HepG-2 human liver cancer cells were cultured in EMEM containing 10% of FBS, 1% of nonessential amino acids, 1 mM of Na-pyruvate, 1% of PenStrep antibiotics and 600 μg/mL of Geneticin. A549 human lung carcinoma cells, T24 human bladder carcinoma cells, MCF-7 human breast adenocarcinoma cells, U-2OS human osteosarcoma and NIH3T3 murine fibroblast cells were cultured in DMEM medium containing 10% fetal bovine serum and 1% antibiotics at 37° C. in 5% CO2 humidified incubators. MC3T3 mouse osteoblast cells were cultured in MEM medium containing 10% fetal bovine serum and 1% antibiotics at 37° C. in 5% CO2 humidified incubators. RWPE-1 human prostate normal cells were cultured in K-SFM medium containing 0.05 mg/ml bovine pituitary extract (BPE) and 5 ng/ml epidermal growth factor (EGF) at 37° C. in 5% CO2 humidified incubators. The MTT reagent (3-(4,5-dimethylthiazol-2-yl)-2,5-diphenyltetrazolium bromide) was used to determine cell death as originally described by Mosmaneland modified by Cuvillier et al.^[6] Briefly, cells were seeded 5,000 to 10,000 cells/well in 24-well plates depending on the cell type and allowed to attach overnight. All of the complexes were dissolved in DMSO. The concentration of the complexes was calculated according to the elemental composition of the complexes determined by the elemental analyses. […] After solubilization with 500 μL of lysis buffer (DMSO), formazan was quantified by spectrophotometry with a microplate reader at 570 nm absorbance. […] All the results were calculated from data obtained in three independent experiments.

The subject of experiment [4] is NIH3T3 murine fibroblast cells. Description: Cell viability MTT assay, NIH3T3. Particulars: for GI50: 72 h, MTT assay; for IC50: Table 3, non tumoral cell model, read-out: IC50 NIH3T3 (fibroblasts); for Selectivity index NIH3T3: SI = GI50 (non-cancer cell line NIH3T3)/GI50 (cancer cell line PC-3). It is filed as cell-based. The procedure: as §1, with “HepG-2” for “PC-3 human prostate cancer cells, and LAMA chronic myeloid leukemia were cultured in RPMI 1640 containing 10% fetal bovine serum and 1% antibiotics (100 U/mL penicillin and 100 μg/mL streotimycin) at 37° C. in 5% CO2 humidified incubators. HL60 chronic myeloid leukemia were cultured in RPMI 1640 containing 15% fetal bovine serum and 1% antibiotics (100 U/mL penicillin and 100 μg/mL streotimycin) at 37° C. in 5% CO2 humidified incubators. HepG-2”, “The GI50 values corresponding to the concentration that caused 50% inhibition of cell proliferation were calculated from dose-response curves obtained by nonlinear regression analysis (Prism 8, Graphpad Software).” left out

For experiment [5], the system named is Non tumoral cell models (MC3-T3, NIH3T3, RWPE1). The experiment is described as follows: MTT assay, mean over non tumoral cell models. It is filed as cell-based. Particulars: mean of MC3-T3, NIH3T3, RWPE1. The procedure: as §2
For experiment [6], the system named is LAMA chronic myeloid leukemia. The experiment is described as follows: Cell viability MTT assay, LAMA. It is filed as cell-based, human. To be noted: for GI50: 72 h, MTT assay; for IC50: Table 3, tumor cell model. The procedure: as §1
For experiment [7], the system named is MCF-7 human breast adenocarcinoma cells. Description: Cell viability MTT assay, MCF-7. It is filed as cell-based. To be noted: for GI50: 72 h, MTT assay; for IC50: Table 3, tumor cell model. The procedure: as §1
The test system of experiment [8] is PC-3 human prostate cancer cells. Description: Cell viability MTT assay, PC-3. In kind it is cell-based. To be noted: for GI50: 72 h, MTT assay; for IC50: Table 3, tumor cell model.
Experiment [9] has as its system RWPE-1 human prostate normal cells. Description: Cell viability MTT assay, RWPE-1. In kind it is cell-based. Particulars: for GI50: 72 h, MTT assay; for IC50: Table 3, non tumoral cell model, read-out: IC50 RWPE1 (prostatic epithelial cells); for Selectivity index RWPE-1: SI = GI50 (RWPE-1)/GI50 (PC-3); for Specificity Prostate: RWPE1 (normal immortalized)/PC-3 (tumoral): ratio of IC50, tumoral versus non tumoral cells of same tissue. The procedure:
as §1, with “HepG-2” for “PC-3 human prostate cancer cells, and LAMA chronic myeloid leukemia were cultured in RPMI 1640 containing 10% fetal bovine serum and 1% antibiotics (100 U/mL penicillin and 100 μg/mL streotimycin) at 37° C. in 5% CO2 humidified incubators. HL60 chronic myeloid leukemia were cultured in RPMI 1640 containing 15% fetal bovine serum and 1% antibiotics (100 U/mL penicillin and 100 μg/mL streotimycin) at 37° C. in 5% CO2 humidified incubators. HepG-2”, “The GI50 values corresponding to the concentration that caused 50% inhibition of cell proliferation were calculated from dose-response curves obtained by nonlinear regression analysis (Prism 8, Graphpad Software).” left out

In experiment [10] the test system is HL60 (acute myeloid leukemia). The experiment is described as follows: Cell viability MTT assay, HL60. It is filed as cell-based. Particulars: for GI50: 72 h, MTT assay; for IC50: Table 3, tumor cell model. The procedure: as §1

Molecules are shown by their SMILES. Where two headings read alike, the source gives them in different places.

With `C[C@H]1[C@@H](O)O[C@@H]2O[C@]3(C)CC[C@H]4[C@H](C)CC[C@@H]1[C@@]24OO3` [DHA, dihydroartemisinin], the GI50 in experiment [1] (Mus musculus, Osteoblast) is 3550 nM; in experiment [4] (Mus musculus, NIH3T3), 3860 nM; in experiment [6] (Homo sapiens), 5600 nM; in experiment [7] (Homo sapiens, MCF7), 9670 nM; in experiment [8] (Homo sapiens) it was 1560 nM; in [9] (Homo sapiens, RWPE-1), 9680 nM. The same molecule returned a GI50 in experiment [10] (Homo sapiens, HL-60) of 25000 nM. The IC50 came out at 3550 nM in experiment [1] (Mus musculus, Osteoblast); 8910 nM in experiment [2] (Homo sapiens); 5740 nM in [3] (Homo sapiens); 3860 nM in [4] (Mus musculus, NIH3T3); 5700 nM in [5]; 5600 nM in experiment [6] (Homo sapiens). For the same molecule, the IC50 in [7] (Homo sapiens, MCF7) amounted to 9670 nM; in experiment [8] (Homo sapiens), 1560 nM; in experiment [9] (Homo sapiens, RWPE-1) it was 9680 nM; in experiment [10] (Homo sapiens, HL-60), 3250 nM. Further, the “Selectivity index MC3T3” value in experiment [1] worked out at 2.3. For the same molecule, the “Specificity Bone: MC3-T3 (normal immortalized)/U2OS (tumoral)” value in experiment [1] stood at 0.9. In experiment [4], the “Selectivity index NIH3T3” value stood at 2.5. Also, the “Selectivity index RWPE-1” value in [9] is recorded as 6.2. Further, the “Specificity Prostate: RWPE1 (normal immortalized)/PC-3 (tumoral)” value in [9] is reported as 6.2.
With `CC(=O)OC[C@H]1O[C@@H]([S-])[C@H](OC(C)=O)[C@@H](OC(C)=O)[C@@H]1OC(C)=O.CCP(CC)CC.[Au+]` [Auranofin], the GI50 in [1] was 1390 nM; in [4], 1100 nM; in [6], 810 nM; in [7], 1390 nM; in experiment [8], 1090 nM; in experiment [9], 84 nM. Further, growth in [10] was halved (GI50) at 950 nM. The “Selectivity index MC3T3” value in [1] worked out at 1.2. For the same molecule, the half-inhibitory concentration (IC50) amounted to 1390 nM in experiment [1]; 2960 nM in experiment [2]; 1460 nM in [3]; 1100 nM in experiment [4]; 860 nM in experiment [5]; 809 nM in [6]. In addition, the IC50 in experiment [7] was determined as 1390 nM; in [8], 1090 nM; in experiment [9] it was 84 nM; in [10], 951 nM. In experiment [1], the “Specificity Bone: MC3-T3 (normal immortalized)/U2OS (tumoral)” value was determined as 2.9. Besides, in [4], the “Selectivity index NIH3T3” value amounted to 1.0. In [9], the “Selectivity index RWPE-1” value amounted to 0.1. In experiment [9], the “Specificity Prostate: RWPE1 (normal immortalized)/PC-3 (tumoral)” value turned out to be 0.1.
